From PubChem BioAssay AID1963447 (Molecular Pharmacology Branch, DTP, NCI, 2024)

Test system: 885512-296-R-J2-PDC complex spheroid growth, % test/control
Experiment: Anticancer human tumor 885512-296-R-J2-PDC patient-derived breast carcinoma cell line growth inhibition [Asc]
Conditions: for IC50: curve of first compound; for viability, T/C: stronger effect = lower value
Method: Multicellular complex tumor spheroid response to apoptosis pathway targeting inhibitors Alrizomadlin, Pelcitoclax, and Dasminapant in combination with a variety of drugs and investigational agents in selected tumor cell lines
The MDM2 inhibitor alrizomadlin, the Bcl-2/Bcl-xL inhibitor pelcitoclax, and the IAPs inhibitor dasminapant were evaluated both individually and in combination with standard of care and investigational anticancer small molecules within a complex spheroid model of solid tumors. . Complex spheroids include a stromal component modeled by human endothelial cells (HUVEC) and fibroblasts modeled by human mesenchymal stem cells (MSCs). The concentration ranges selected for each drug and investigational agent were based upon clinically achievable concentrations if the clinical Cmax of the agent was known.
Compounds. The drugs and investigational agents: alrizomadlin (APG-115; NSC831270), pelcitoclax (APG-1252; NSC835773), dasminapant (APG-1387;NSC834197), TAK-243 (NSC785004), copanlisib (NSC809693), olaparib (NSC753686), talazoparib (NSC767125), cobimetinib (NSC 768068), eltanexor (KPT-8602, NSC 794443), abemaciclib (NSC 768073), sotorasib (NSC818433), adagrasib (NSC 831453), MRTX-1133 (NSC 836407), Iadademestat (ORY1001, NSC 806812), and RMC-4630 (NSC839698), were obtained from the NCI Developmental Therapeutics Program Chemical Repository. The FDA-approved anticancer drug set is available from the Developmental Therapeutics Program at https://dtp.cancer.gov/organization/dscb/obtaining/available plates.htm. […] The stock solutions were prepared in dimethyl sulfoxide (DMSO, Sigma-Aldrich, St. Louis, MO, cat. D2650) at 800-fold the tested concentration and stored at -70 degrees C prior to their use. All drugs and investigational agents were tested over a range starting from a high concentration at or near the clinical Cmax and decreasing in half-log increments. If the clinical Cmax for an agent had not been determined, the highest concentration tested was 10 microM.
The patient-derived cancer (PDC) cell lines include five colon adenocarcinomas: 186277-243-T-J2-PDC, 616215-338-R-J1-PDC, 439559-082-T-J2-PDC, 463943-066-T-J2-PDC, and 519858-162-T-J1-PDC; three pancreatic carcinomas: 323965-272-R-J2-PDC, 521955-158-R6-J3-PDC, and 521955-158-R2-J5-PDC; two uterine sarcomas: 327498-152-R-J2-PDC and 993429-296-R-J1-PDC; two rhabdomyosarcomas: 755483-174-R-J1-PDC and 772245-204-R-J1-PDC; two soft tissue sarcomas: 126254-015-R-J1-PDC and 494315-158-R-J1-PDC; two malignant fibrous histiocytomas: 317291-083-R-J1-PDC and 596521-263-R-J1-PDC; two breast carcinomas: 171881-019-R-J1-PDC and 885512-296-R-J2-PDC; and one ovarian carcinoma: 6556581-035-R-J-PDC were obtained from the NCI PDMR, (https://pdmr.cancer.gov). The established cell lines HSSY-2 synovial sarcoma (RRID:CVCL 8719), SYO-1 synovial sarcoma (RRID:CVCL_7146), MPNST malignant peripheral neural sheath tumor were obtained from the Sloan Kettering Institute. The following established cell lines were purchased from the American Type Culture Collection (ATCC, Manassas, VA), Sor the received from the NCI repository:, PANC-1 pancreatic carcinoma (CRL-1469, RRID:CVCL_0480), OVCAR-5 ovarian carcinoma (RRID:CVCL_1628), OVCAR-8 ovarian carcinoma (RRID:CVCL_1629), , MCF-7 breast carcinoma (CRL-12584, RRID:CVCL_0031), MDA-MB-231 breast carcinoma (CRL-12532, RRID:CVCL_0062), NCI-H1876 small cell lung carcinoma (CRL-5902, RRID:CVCL_1503), NCI-H510A small cell lung carcinoma (HTB-184, RRID:CVCL_1565), NCI-H1417 (CRL-5869, RRID:CVCL_1469), and NCI-H196 small cell lung carcinoma (CRL-5823, RRID:CVCL_1509). Dr. Peter Houghton (Greehey Children's Cancer Research Institute, University of Texas Health Science Center, San Antonio, TX) provided Rh-18 rhabdomyosarcoma (RRID:CVCL_1659). Pooled donor human umbilical vein endothelial cells (HUVEC, Lonza, cat. CC-2519) and human mesenchymal stem cells (hMSC, Lonza, cat. PT-2501) were purchased from Lonza (Walkersville, MD).
Cell Culture. […]

[1] = second compound 0.03 µM, first compound 0.00316 µM
[2] = second compound 0.03 µM, first compound 0.01 µM
[3] = second compound 0.03 µM, first compound 0.0316 µM
[4] = second compound 0.03 µM, first compound 0.1 µM
[5] = second compound 0.0949 µM, first compound 0.00316 µM
[6] = second compound 0.0949 µM, first compound 0.01 µM
[7] = second compound 0.0949 µM, first compound 0.0316 µM
[8] = second compound 0.0949 µM, first compound 0.1 µM
[9] = second compound 0.3 µM, first compound 0.00316 µM
[10] = second compound 0.3 µM, first compound 0.01 µM
[11] = second compound 0.3 µM, first compound 0.0316 µM
[12] = second compound 0.3 µM, first compound 0.1 µM
[13] = second compound 0.949 µM, first compound 0.00316 µM
[14] = second compound 0.949 µM, first compound 0.01 µM
[15] = second compound 0.949 µM, first compound 0.0316 µM
[16] = second compound 0.949 µM, first compound 0.1 µM
[17] = second compound 3 µM, first compound 0.00316 µM
[18] = second compound 3 µM, first compound 0.01 µM
[19] = second compound 3 µM, first compound 0.0316 µM
[20] = second compound 3 µM, first compound 0.1 µM
[21] = second compound 0.03 µM, first compound 0.316 µM
[22] = second compound 0.03 µM, first compound 1 µM
[23] = second compound 0.0949 µM, first compound 0.316 µM
[24] = second compound 0.0949 µM, first compound 1 µM
[25] = second compound 0.3 µM, first compound 0.316 µM
[26] = second compound 0.3 µM, first compound 1 µM
[27] = second compound 0.949 µM, first compound 0.316 µM
[28] = second compound 0.949 µM, first compound 1 µM
[29] = second compound 3 µM, first compound 0.316 µM
[30] = second compound 3 µM, first compound 1 µM
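Also: spheroids exposed to compounds for seven days.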
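For viability, T/C in this document: 100% = DMSO vehicle control wells.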

Row | SMILES | IC50 (second compound 0.03 µM) [nM] | IC50 (second compound 0.0949 µM) [nM] | IC50 (second compound 0.3 µM) [nM] | IC50 (second compound 0.949 µM) [nM] | IC50 (second compound 3 µM) [nM] | viability, T/C [1] [%] | viability, T/C [2] [%] | viability, T/C [3] [%] | viability, T/C [4] [%] | viability, T/C [5] [%] | viability, T/C [6] [%] | viability, T/C [7] [%] | viability, T/C [8] [%] | viability, T/C [9] [%] | viability, T/C [11] [%] | viability, T/C [12] [%] | viability, T/C [15] [%] | viability, T/C [16] [%] | viability, T/C [19] [%] | viability, T/C [20] [%] | further results
1 | Cn1ncnc1[C@H]1c2n[nH]c(=O)c3cc(F)cc(c23)N[C@@H]1c1ccc(F)cc1 + CCN1C(C(=O)NC23CCC(C(=O)O)(CC2)CC3)C(c2cccc(Cl)c2F)C2(C(=O)Nc3cc(Cl)ccc32)C12CCCCC2 | 37.8 | 54.2 | 21 | 23.5 | < 0.316 | 91.6 | 66.9 | 58 | 35.5 | 93.3 | 76.2 | 57 | 43.1 | 88 | 49.2 | 35.2 | 47.7 | 35.3 | 40.2 | 31.6 | viability, T/C (second compound 0.03 µM, first compound 0.000316 µM): 88.7%; viability, T/C (second compound 0.03 µM, first compound 0.001 µM): 107%; viability, T/C (second compound 0.0949 µM, first compound 0.000316 µM): 91%; viability, T/C (second compound 0.0949 µM, first compound 0.001 µM): 101%; viability, T/C (second compound 0.3 µM, first compound 0.000316 µM): 80.5%; viability, T/C (second compound 0.3 µM, first compound 0.001 µM): 90.8%; viability, T/C [10]: 60%; viability, T/C (second compound 0.949 µM, first compound 0.000316 µM): 80.2%; viability, T/C (second compound 0.949 µM, first compound 0.001 µM): 72.6%; viability, T/C [13]: 63.1%; viability, T/C [14]: 60.5%; viability, T/C (second compound 3 µM, first compound 0.000316 µM): 43.9%; viability, T/C (second compound 3 µM, first compound 0.001 µM): 40.2%; viability, T/C [17]: 41.8%; viability, T/C [18]: 38.4%
2 | O=C(c1cc(Cc2n[nH]c(=O)c3ccccc23)ccc1F)N1CCN(C(=O)C2CC2)CC1 + CCN1C(C(=O)NC23CCC(C(=O)O)(CC2)CC3)C(c2cccc(Cl)c2F)C2(C(=O)Nc3cc(Cl)ccc32)C12CCCCC2 | 4710 | 5650 | 5140 | 5090 | < 31.6 | – | – | 80.5 | 118 | – | – | 98.8 | 116 | – | 93.3 | 97.8 | 72 | 81.1 | 45.1 | 54.7 | viability, T/C [21]: 116%; viability, T/C [22]: 92.7%; viability, T/C (second compound 0.03 µM, first compound 3.16 µM): 67.7%; viability, T/C (second compound 0.03 µM, first compound 10 µM): 17.6%; viability, T/C [23]: 107%; viability, T/C [24]: 90.2%; viability, T/C (second compound 0.0949 µM, first compound 3.16 µM): 79.5%; viability, T/C (second compound 0.0949 µM, first compound 10 µM): 22.9%; viability, T/C [25]: 89.9%; viability, T/C [26]: 98.1%; viability, T/C (second compound 0.3 µM, first compound 3.16 µM): 69.5%; viability, T/C (second compound 0.3 µM, first compound 10 µM): 23.6%; viability, T/C [27]: 76%; viability, T/C [28]: 77.1%; viability, T/C (second compound 0.949 µM, first compound 3.16 µM): 66.8%; viability, T/C (second compound 0.949 µM, first compound 10 µM): 25.3%; viability, T/C [29]: 42.6%; viability, T/C [30]: 47.8%; viability, T/C (second compound 3 µM, first compound 3.16 µM): 47.2%; viability, T/C (second compound 3 µM, first compound 10 µM): 23.5%
3 | O=C(c1ccc(F)c(F)c1Nc1ccc(I)cc1F)N1CC(O)([C@@H]2CCCCN2)C1 + CCN1C(C(=O)NC23CCC(C(=O)O)(CC2)CC3)C(c2cccc(Cl)c2F)C2(C(=O)Nc3cc(Cl)ccc32)C12CCCCC2 | 127 | 148 | 132 | 55.3 | < 3.16 | 100 | 74.2 | 63.5 | 62 | 89.4 | 89.3 | 66.5 | 57.1 | 83.5 | 65.7 | 55.2 | 54 | 48.8 | 31.4 | 35.4 | viability, T/C [21]: 39.4%; viability, T/C [22]: 18.7%; viability, T/C [23]: 39.1%; viability, T/C [24]: 17.5%; viability, T/C [10]: 80.6%; viability, T/C [25]: 36.8%; viability, T/C [26]: 18.1%; viability, T/C [13]: 67.7%; viability, T/C [14]: 53.4%; viability, T/C [27]: 33.9%; viability, T/C [28]: 17.5%; viability, T/C [17]: 42.7%; viability, T/C [18]: 35.9%; viability, T/C [29]: 22.2%; viability, T/C [30]: 14.7%
